Data as given in US9364462B2, “Alpha-1-adrenergic receptor agonist therapy” (The Regents of the University of California, priority 2012, dated 2016).

Assay: Pressure overload cardiomyopathy (transverse aortic constriction, TAC) model
Format: in vivo, mouse
Source text: FIG. 7. A61603 rescues pressure overload cardiomyopathy. Mice had echo 2 weeks after TAC, at which time they were randomized to treatment with A61603, at the same low dose, or vehicle. Fractional shortening, an index of cardiac function, was depressed by TAC, and improved with A61603, but not with vehicle.
FIG. 8. A61603 in pressure overload cardiomyopathy improves growth and protection, and reduces fibrosis.
Studies in mice looking at alpha-1 agonist therapy, using A61603, in a model of heart failure due to pressure overload (transverse aortic constriction model). A model of pressure overload was tested for 2 reasons: (1) test generality of A61603 effects in different types of cardiomyopathy; and (2) test treatment (rescue), rather than prevention, i.e. A61603 given at an interval of time after injury, when cardiomyopathy was already manifest. We used an adult mouse model of transverse aortic constriction (TAC), with the aorta surgically narrowed, so that the heart had to pump against an increased pressure (pressure overload). […] A61603 treatment rescued the cardiomyopathy, as measured by heart function (FIG. 7). […] Thus improvement in function caused by A61603 was again due to direct effects on cardiac muscle cells. The alpha-1A agonist A61603 at a low dose rescues (e.g. treats) cardiomyopathy due to pressure overload, an injury that simulates several types of cardiac disease, and the mechanism is improvement of cardiac myocytes.

## CS(=O)(=O)Nc1c(O)ccc2c1CCCC2C1=NCCN1 (stereo not drawn) [A61603, N-[1-(4,5-dihydro-1H-imidazol-2-yl)-6-hydroxy-tetralin-5-yl]methanesulfonamide]
A61603 vs vehicle group after TAC
  degree of overload (the gradient): the same in both groups
TAC
  adaptive proteins (myosin or MF20 and beta-myosin or bMHC): more adaptive proteins
  collagen fibrosis (Col I): less collagen fibrosis
  heart weight normalized to body weight (HW/BW): less abnormal enlargement
  protection (ERK): higher protection
Treatment started 2 weeks after TAC, low dose, vs vehicle
  fractional shortening: improved
